Laboratory results from US20120077957A1, “Lactam-Bridged Melanocortin Receptor-Specific Peptides” (PALATIN TECHNOLOGIES, INC., priority 2009, published 2012).
Read-outs that look alike come from different tables or passages of the source. Bridge positions count the residues as written; N and C are the ends. Square brackets hold non-standard residues; d marks the D form. Peptide text beside a SMILES is read from it. Orn = NCCC[C@H](N)C(=O)O

Molecular target: T1, human MC4-R (Homo sapiens, UniProt P32245)
T1 construct: expressed in transfected cells; host or cells: HEK293 T-REx (tetracycline-regulated, Invitrogen); cell line from Palatin Technologies with license from the University of Michigan
Experiment: cAMP functional assay in HEK-293 T-REx cells expressing human MC4-R, induced with doxycycline 0.1 ng/mL (low density)
Format: cell-based
Settings: for Emax: HEK293-T-REx
Text: A HEK293 cell line transfected with human MC4-R (from Palatin Technologies, US, with license from the University of Michigan) was used. The human MC4-R was introduced to HEK293 by using the T-REx™ System, Invitrogen. The T-REx™ System employs a tetracycline-regulated mammalian expression system that uses regulatory elements from the E. coli Tn10-encoded tetracycline (Tet) resistance operon. By use of the T-REx™ System, expression of the gene of interest, the human MC4-R gene, is repressed in the absence of tetracycline or doxycycline and induced in the presence of tetracycline or doxycycline (see T-REx™ System Manual, published by Invitrogen).
Cells were then counted and volume was adjusted to 5×10^4 cells per 200 μL.
The cells were then dispensed into 96-well plates (BD 353916) in 198 μL (about 5×10^4) cells/well and incubated for 10 minutes at 37° C. The compound to be tested was diluted with DMSO to a final concentration of 1 mM. Serial dilution was prepared in polypropylene removable 12-well library tube strips (VWR cat #83009-682). 120 μL of the 1 mM compound stock was pipetted in the second column on the plate.
2 μL of the standard, [Nle^4, D-Phe^7]alpha-Melanocyte Stimulating Hormone (NDP-α-MSH), or compound was added to the 96-well plate using the Janus robotic system. All assay samples were run in duplicate (i.e. each sample was in two low dox and two high dox plates, respectively). The plates were gently shaken and incubated for 15 minutes at 37° C. The reaction was stopped by adding 15 μL of lysis buffer per well and the plates were shakened for 30 minutes at room temperature.
Agonist stimulation of the MC4-R activates adenylate cyclase, which is an enzyme that catalyses the formation 3′,5′-cyclic adenosine monophosphate (cAMP) from adenosine triphosphate (ATP). […] Fluoresence ratios were then calculated as described in the CisBio HTRF kit, with GraphPad Prism software used to plot the change in fluorescence percent values versus cAMP concentration using the variable slope dose response curve and, based on calculated cAMP concentrations, to determine EC50 and Emax values. […]

[1] = maximal cAMP stimulation, NDP-α-MSH = 100%, doxycycline 0.1 ng/mL, averages of all comparable assays, read-out: Emax
[2] = human MC4-R cAMP assay, doxycycline 0.1 ng/mL, averages of all comparable assays, read-out: Ec50

T1 sequence (P32245 whole entry): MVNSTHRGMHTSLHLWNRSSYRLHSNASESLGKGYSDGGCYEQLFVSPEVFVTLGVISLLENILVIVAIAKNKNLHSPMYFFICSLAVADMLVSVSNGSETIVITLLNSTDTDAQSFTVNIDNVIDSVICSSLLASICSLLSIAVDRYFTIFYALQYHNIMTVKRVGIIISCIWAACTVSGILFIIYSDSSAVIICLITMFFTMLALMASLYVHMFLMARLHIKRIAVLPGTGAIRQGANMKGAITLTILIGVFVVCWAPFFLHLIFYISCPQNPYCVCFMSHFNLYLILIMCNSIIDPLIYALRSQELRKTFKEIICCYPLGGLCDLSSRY

Row | Compound | Emax [%] | Emax [1] [%] | EC50 [2] [nM] | EC50 [nM]
1 | CCCC[C@H](NC(C)=O)C(=O)N[C@H]1CC(=O)NCCCC[C@@H](C(=O)O)NC(=O)[C@H](Cc2c[nH]c3ccccc23)NC(=O)[C@H](CCCNC(=N)N)NC(=O)[C@@H](Cc2ccccc2)NC(=O)[C@H](Cc2c[nH]cn2)NC1=O [Ac-Nle-cyclo(Asp-His-D-Phe-Arg-Trp-Lys)-OH, reference compound] | 81 | – | – | –
2 | CC(=O)N[C@@H](CCCNC(=N)N)C(=O)N[C@H]1CCC(=O)NCCC[C@@H](C(=O)O)NC(=O)[C@H](Cc2c[nH]c3ccccc23)NC(=O)[C@H](CCCNC(=N)N)NC(=O)[C@@H](Cc2ccccc2)NC(=O)[C@H](Cc2c[nH]cn2)NC1=O [No. 3, Ac-Arg-cyclo(Glu-His-D-Phe-Arg-Trp-Orn)-OH] (Ac-REH[dF]RW[Orn]-OH; lactam 2-7) | – | 83 | 0.7 | –
3 | CC(=O)N[C@@H](CCCNC(=N)N)C(=O)N[C@H]1CCC(=O)NCCC[C@@H](C(=O)O)NC(=O)[C@H](Cc2c[nH]c3ccccc23)NC(=O)[C@H](CCCNC(=N)N)NC(=O)[C@@H](Cc2ccccc2)NC(=O)[C@H](CCN)NC1=O [No. 5, Ac-Arg-cyclo(Glu-Dab-D-Phe-Arg-Trp-Orn)-OH] | – | 94 | 2 | –
4 | CC(=O)N[C@@H](CCCNC(=N)N)C(=O)N[C@H]1CCC(=O)NCCC[C@@H](C(=O)O)NC(=O)[C@H](Cc2c[nH]c3ccccc23)NC(=O)[C@H](CCCNC(=N)N)NC(=O)[C@@H](Cc2ccccc2)NC(=O)[C@H](CCCN)NC1=O [No. 7, Ac-Arg-cyclo(GIu-Orn-D-Phe-Arg-Trp-Orn)-OH] | – | 92 | 4 | –
5 | CC(=O)N[C@@H](CCCNC(=N)N)C(=O)N[C@H]1CCC(=O)NCCC[C@@H](C(=O)O)NC(=O)[C@H](Cc2c[nH]c3ccccc23)NC(=O)[C@H](CCCNC(=N)N)NC(=O)[C@@H](Cc2ccccc2)NC(=O)[C@H](CCCNC(=N)N)NC1=O [No. 9, Ac-Arg-cyclo(Glu-Arg-D-Phe-Arg-Trp-Orn)-OH] | – | 82 | 2 | –
6 | CC(=O)N[C@@H](CCCNC(=N)N)C(=O)N[C@H]1CCC(=O)NCCC[C@@H](C(N)=O)NC(=O)[C@H](Cc2c[nH]c3ccccc23)NC(=O)[C@H](CCCNC(=N)N)NC(=O)[C@@H](Cc2ccccc2)NC(=O)[C@H](CCCNC(=N)N)NC1=O [No. 10, Ac-Arg-cyclo(Glu-Arg-D-Phe-Arg-Trp-Orn)-NH2] | – | 98 | – | –
7 | CC(=O)N[C@@H](CCCNC(=N)N)C(=O)N[C@H]1CCC(=O)NCCC[C@@H](C(=O)O)NC(=O)[C@H](Cc2c[nH]c3ccccc23)NC(=O)[C@H](CCCNC(=N)N)NC(=O)[C@@H](Cc2ccccc2)NC(=O)[C@H](CCC(N)=O)NC1=O [No. 11, Ac-Arg-cyclo(Glu-Gln-D-Phe-Arg-Trp-Orn)-OH] | – | 81 | – | –
8 | CC(=O)N[C@@H](CCCNC(=N)N)C(=O)N[C@H]1CCC(=O)NCCC[C@@H](C(N)=O)NC(=O)[C@H](Cc2c[nH]c3ccccc23)NC(=O)[C@H](CCCNC(=N)N)NC(=O)[C@@H](Cc2ccccc2)NC(=O)[C@@H]2C[C@@H](O)CN2C1=O [No. 14, Ac-Arg-cyclo(Glu-Hyp-D-Phe-Arg-Trp-Orn)-NH2] | – | 104 | – | –
9 | CC(=O)N[C@@H](CCCNC(=N)N)C(=O)N[C@H]1CCC(=O)NCCC[C@@H](C(N)=O)NC(=O)[C@H](Cc2c[nH]c3ccccc23)NC(=O)[C@H](CCCNC(=N)N)NC(=O)[C@@H](Cc2ccccc2)NC(=O)[C@H](CCCNC(N)=O)NC1=O [No. 15, Ac-Arg-cyclo(Glu-Cit-D-Phe-Arg-Trp-Orn)-NH2] | – | 87 | – | –
10 | CC(=O)N[C@@H](CCCNC(=N)N)C(=O)N[C@H]1CCC(=O)NCCC[C@@H](C(N)=O)NC(=O)[C@H](Cc2c[nH]c3ccccc23)NC(=O)[C@H](CCCNC(=N)N)NC(=O)[C@@H](Cc2ccccc2)NC(=O)[C@H](CCCCN)NC1=O [No. 16, Ac-Arg-cyclo(Glu-Lys-D-Phe-Arg-Trp-Orn)-NH2] (Ac-REK[dF]RW[Orn]-NH2; lactam 2-7) | – | 104 | 2 | –
11 | CC(=O)NCC[C@@H]1NC(=O)[C@@H](NC(=O)[C@H](CCCNC(=N)N)NC(C)=O)CCC(=O)NCCC[C@@H](C(N)=O)NC(=O)[C@H](Cc2c[nH]c3ccccc23)NC(=O)[C@H](CCCNC(=N)N)NC(=O)[C@@H](Cc2ccccc2)NC1=O [No. 18, Ac-Arg-cyclo(Glu-Dab(Acetyl)-D-Phe-Arg-Trp-Orn)-NH2] | – | 75 | – | –
12 | CC(=O)N[C@@H](CCCNC(=N)N)C(=O)N[C@H]1CCC(=O)NCCC[C@@H](C(=O)NC2CC2)NC(=O)[C@H](Cc2c[nH]c3ccccc23)NC(=O)[C@H](CCCNC(=N)N)NC(=O)[C@@H](Cc2ccccc2)NC(=O)[C@H](CCC(N)=O)NC1=O [No. 19, Ac-Arg-cyclo(Glu-Gln-D-Phe-Arg-Trp-Orn)-NH-cycProp] | – | 91 | 1 | –
13 | CC(=O)N[C@@H](CCCNC(=N)N)C(=O)N[C@H]1CCC(=O)NCCC[C@@H](C(=O)O)NC(=O)[C@H](Cc2c[nH]c3ccccc23)NC(=O)[C@H](CCCNC(=N)N)NC(=O)[C@@H](Cc2ccccc2)NC(=O)[C@H](CC(N)=O)NC1=O [No. 20, Ac-Arg-cyclo(Glu-Asn-D-Phe-Arg-Trp-Orn)-OH] | – | 76 | 12 | –
14 | CC(=O)N[C@H]1CCC(=O)NCCC[C@@H](C(N)=O)NC(=O)[C@H](Cc2c[nH]c3ccccc23)NC(=O)[C@H](CCCNC(=N)N)NC(=O)[C@@H](Cc2ccccc2)NC(=O)[C@H](CCC(N)=O)NC1=O [No. 21, Ac-cyclo(Glu-Gln-D-Phe-Arg-Trp-Orn)-NH2] (Ac-EQ[dF]RW[Orn]-NH2; lactam 1-6) | – | 49 | 26 | –
15 | CC(=O)N[C@H](CCCNC(=N)N)C(=O)N[C@H]1CCCNC(=O)CC[C@@H](C(N)=O)NC(=O)[C@H](Cc2c[nH]c3ccccc23)NC(=O)[C@H](CCCNC(=N)N)NC(=O)[C@@H](Cc2ccccc2)NC(=O)[C@H](Cc2c[nH]cn2)NC1=O [No. 39, Ac-D-Arg-cyclo(Orn-His-D-Phe-Arg-Trp-Glu)-NH2] | – | 103 | 0.2 | –
16 | CC(=O)N[C@@H](CCCNC(=N)N)C(=O)N[C@H]1CCCNC(=O)CC[C@@H](C(=O)O)NC(=O)[C@H](Cc2c[nH]c3ccccc23)NC(=O)[C@H](CCCNC(=N)N)NC(=O)[C@@H](Cc2ccccc2)NC(=O)[C@H](CCN)NC1=O [No. 42, Ac-Arg-cyclo(Orn-Dab-D-Phe-Arg-Trp-Glu)-OH] | – | 100 | – | –
17 | CC(=O)N[C@@H](CCCNC(=N)N)C(=O)N[C@H]1CCCNC(=O)CC[C@@H](C(N)=O)NC(=O)[C@H](Cc2c[nH]c3ccccc23)NC(=O)[C@H](CCCNC(=N)N)NC(=O)[C@@H](Cc2ccccc2)NC(=O)[C@H](CC(N)=O)NC1=O [No. 46, Ac-Arg-cyclo(Orn-Asn-D-Phe-Arg-Trp-Glu)-NH2] | – | 88 | – | –
18 | CC(=O)N[C@@H](CCCNC(=N)N)C(=O)N[C@H]1CC(=O)NCCCC[C@@H](C(N)=O)NC(=O)[C@H](Cc2c[nH]c3ccccc23)NC(=O)[C@H](CCCNC(=N)N)NC(=O)[C@@H](Cc2ccccc2)NC(=O)[C@H](CCN)NC1=O [reference compound] | – | 91 | – | –
19 | CC(=O)N[C@@H](CCCNC(=N)N)C(=O)N[C@H]1CC(=O)NCCCC[C@@H](C(=O)O)NC(=O)[C@H](Cc2c[nH]c3ccccc23)NC(=O)[C@H](CCCNC(=N)N)NC(=O)[C@@H](Cc2ccccc2)NC(=O)[C@H](CCCNC(=N)N)NC1=O [reference compound] | – | 75 | – | –
20 | CC(=O)N[C@@H](CCCNC(=N)N)C(=O)N[C@H]1CC(=O)NCCCC[C@@H](C(N)=O)NC(=O)[C@H](Cc2c[nH]c3ccccc23)NC(=O)[C@H](CCCNC(=N)N)NC(=O)[C@@H](Cc2ccccc2)NC(=O)[C@H](CCCNC(=N)N)NC1=O [reference compound] | – | 68 | – | –
21 | CC(=O)N[C@@H](CCCNC(=N)N)C(=O)N[C@H]1CC(=O)NCCCC[C@@H](C(=O)O)NC(=O)[C@H](Cc2c[nH]c3ccccc23)NC(=O)[C@H](CCCNC(=N)N)NC(=O)[C@@H](Cc2ccccc2)NC(=O)[C@H](CCC(N)=O)NC1=O [reference compound] | – | 80 | 19 | –
22 | CC(=O)N[C@@H](CCCNC(=N)N)C(=O)N[C@H]1CC(=O)NCCCC[C@@H](C(N)=O)NC(=O)[C@H](Cc2c[nH]c3ccccc23)NC(=O)[C@H](CCCNC(=N)N)NC(=O)[C@@H](Cc2ccccc2)NC(=O)[C@H](CCC(N)=O)NC1=O [reference compound] | – | 85 | – | 17
23 | CC(=O)N[C@@H](CCCNC(=N)N)C(=O)N[C@H]1CC(=O)NCCCC[C@@H](C(N)=O)NC(=O)[C@H](Cc2c[nH]c3ccccc23)NC(=O)[C@H](CCCNC(=N)N)NC(=O)[C@@H](Cc2ccccc2)NC(=O)[C@@H]2C[C@@H](O)CN2C1=O [reference compound] | – | 39 | – | –
24 | CC(=O)N[C@@H](CCCNC(=N)N)C(=O)N[C@H]1CC(=O)NCCCC[C@@H](C(N)=O)NC(=O)[C@H](Cc2c[nH]c3ccccc23)NC(=O)[C@H](CCCNC(=N)N)NC(=O)[C@@H](Cc2ccccc2)NC(=O)[C@H](CCCNC(N)=O)NC1=O [reference compound] | – | 69 | – | –
